The values that follow come from patent publication US20140135499A1, “METHODS FOR THE TOTAL CHEMICAL […] OF ENANTIOMERICALLY-PURE 7-(2'-[…]) ETHYL CAMPTOTHECIN” (BioNumerik Pharmaceuticals, Inc., priority 2012, published 2014).

For assay [1] the following is noted: sodium hydroxide formulation, hydrolysed E-ring; cited from earlier work.
The test system of assay [2] is angiogenesis (neovascularization). The following applies: mice cornea model; dose levels of 210 mg/kg; cited from earlier work.
In assay [3] the test system is Wild type human ovarian cancer cells (A2780/WT). The experiment in a line: SRB cytotoxicity assay, inhibition of cell growth, A2780/WT. It counts as cell-based. The following applies: 2 hour treatment, SRB assay at 5 days. As for the experimental part: (§1) Wild type human ovarian cancer cells (A2780/WT) and doxorubicin resistant human ovarian cancer cells (A2780/DX5) were cultured in RPMI 1640 medium supplemented with 10% fetal bovine serum and 2 mM glutamine, and grown in a 37° C. incubator with 5% CO2. BNP1350 synthesized from camptothecin natural product (purchased from APAC) and BNP1350 synthesized via the Total Synthesis Scheme at BioNumerik Pharmaceuticals, Inc. were dissolved in DMSO for use in cytotoxicity experiments where inhibition of cell growth was measured using the SRB assay. Briefly, cells were seeded (450 cells/well in 100 μL volume) in a 96-well microtiter plates and allowed to attach for 24 hours prior to treatment with either natural product BNP1350 or total synthesis BNP1350 for 2 hours. Following this 2 hour treatment, BNP1350 was removed, the cells were washed with drug-free media (200 μL), and then drug-free media (200 μL) was added to the cells which were allowed to continue growing at 37° C. with 5% CO2 before the SRB assay was performed (total experimental time from the time of initial seeding was 5 days, during which 5 cell doublings occurred).

The test system of assay [4] is doxorubicin resistant human ovarian cancer cells (A2780/DX5). As to the kind of experiment: SRB cytotoxicity assay, inhibition of cell growth, A2780/DX5. It counts as cell-based. The following applies: for IC50: A2780/DX5, 2 hour treatment, SRB assay at 5 days; for Resistance Factor Ratio A2780/DX5 IC50/A2780WT IC50: ratio of average IC50 values. As to the method:
as §1

Assay [5] concerns panel of over twenty (20) human cancer cell lines. As to the kind of experiment: In vitro studies on a panel of human cancer cell lines. It counts as cell-based. The text has this:
In contrast, Karenitecin is a highly lipophilic camptothecin derivative characterized by substantial lactone stability and long plasma half-life. […] The free drug concentration in blood plasma is generally considered to be the pharmacologically active form in clinical pharmacology.

Like-named read-outs stand apart in the source and are kept apart here.

On to `CC[C@@](O)(C(=O)O)c1cc2n(c(=O)c1CO)Cc1cc3ccccc3nc1-2` [carboxylate form of CPT], for which the “anti-tumor potency relative to non-hydrolyzed lactone form of CPT” value in assay [1] was “one-tenth or less”.
For the compound `CCc1c2c(nc3ccc(OC(=O)N4CCC(N5CCCCC5)CC4)cc13)-c1cc3c(c(=O)n1C2)COC(=O)[C@]3(O)CC` [Irinotecan, 7-ethyl-10-[4-(1-piperidino)-1-piperidino]carbonyloxy camptothecin], the neovascularization entry in assay [2] was “significant reduction”.
Consider `CC[C@@]1(O)C(=O)OCc2c1cc1n(c2=O)Cc2c-1nc1ccccc1c2CC[Si](C)(C)C` [Total Synthesis BNP1350, (4S)-4-ethyl-4-hydroxy-11-[2-(trimethylsilyl)ethyl]-1H-pyrano[3′:4′:6,7]indolizino[1,2-b]quinoline-3,14(4H,12H)-dione], for which the IC50 in assay [3] (Test 1, listed as Natural Product BNP1350, read-out: IC50 (nM) A2780/WT, Test 1) turned out to be 6.7 nM; in assay [3] (Test 1, read-out: IC50 (nM) A2780/WT, Test 1), 6 nM; in assay [3] (Test 2, listed as Natural Product BNP1350, read-out: IC50 (nM) A2780/WT, Test 2), 5.4 nM; in assay [3] (Test 2, read-out: IC50 (nM) A2780/WT, Test 2) it was 6.8 nM; in assay [3] (average of Test 1 and Test 2, listed as Natural Product BNP1350, read-out: IC50 (nM) A2780/WT, Average) it was 6.1 nM; in assay [3] (average of Test 1 and Test 2, read-out: IC50 (nM) A2780/WT, Average) it was 6.4 nM. Besides, the IC50 was determined as 8.9 nM in assay [4] (Test 1, listed as Natural Product BNP1350, read-out: IC50 (nM) A2780/DX5, Test 1); 11.9 nM in assay [4] (Test 1, read-out: IC50 (nM) A2780/DX5, Test 1); 11.6 nM in assay [4] (Test 2, listed as Natural Product BNP1350, read-out: IC50 (nM) A2780/DX5, Test 2); 11.7 nM in assay [4] (Test 2, read-out: IC50 (nM) A2780/DX5, Test 2); 10.3 nM in assay [4] (average of Test 1 and Test 2, listed as Natural Product BNP1350, read-out: IC50 (nM) A2780/DX5, Average); 11.8 nM in assay [4] (average of Test 1 and Test 2, read-out: IC50 (nM) A2780/DX5, Average). Further, the “Resistance Factor Ratio A2780/DX5 IC50/A2780WT IC50” value in assay [4] is on record as 1.8; in assay [4] (listed as Natural Product BNP1350), 1.7. Moreover, the “antitumor potency compared with Topotecan or SN-38” value in assay [5] was “significantly more potent”.
